According to patent US5624923A, “Tricyclic diazepine vasopressin antagonists and oxytocin antagonists” (priority 1995, dated 1997):

Tests used:
[1] = tested on: Vasopressin V2; experiment: Vasopressin V2 Antagonist Activity in Conscious Hydrated Rats; assay type: in vivo, rat; conditions: AVP 0.4 μg/kg i.p.
Summary of the method: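 Four-hour urine output, osmolality and electrolytes (Na+, K+, Cl−) recorded in water-loaded rats (30 mL/kg deionized water orally) given AVP i.p. at 0.4 μg/kg. Test compounds were given orally at 0.1–100 mg/kg 1 h before AVP; 2–4 rats per compound.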

[2] = target: T1, Rat Kidney Medullary V2 Receptors (Rattus norvegicus, UniProt Q00788); experiment: Binding Assay to Rat Kidney Medullary V2 Receptors; conditions: for IC50: rat kidney medulla membranes, read-out: V2 IC50
T1 construct: Medullary tissues from rat kidneys are dissected out; from tissue; host or cells: rat kidney medulla membranes
T1 sequence (Q00788 whole entry): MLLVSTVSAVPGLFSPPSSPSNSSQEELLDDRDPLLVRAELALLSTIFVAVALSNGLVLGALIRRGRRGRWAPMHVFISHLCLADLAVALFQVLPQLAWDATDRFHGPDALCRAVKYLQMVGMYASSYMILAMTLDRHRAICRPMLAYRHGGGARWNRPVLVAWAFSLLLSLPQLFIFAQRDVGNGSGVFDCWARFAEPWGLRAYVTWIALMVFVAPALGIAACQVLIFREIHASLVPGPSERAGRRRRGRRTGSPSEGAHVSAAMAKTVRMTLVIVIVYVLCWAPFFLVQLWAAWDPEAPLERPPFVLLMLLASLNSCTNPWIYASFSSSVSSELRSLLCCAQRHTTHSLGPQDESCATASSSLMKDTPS
Summary of the method: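 IC50 derived from competition curves; bound tritium counted by liquid scintillation after filtration. Rat medullary kidney membranes (Tris-HCl pH 7.4, BSA, PMSF) were incubated 120 min to equilibrium with radioligand and test compound (added in 50% DMSO). Nonspecific binding: 1.0 μM unlabeled ligand.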

[3] = tested on: Vasopressin V1; experiment: Vasopressin V1 Antagonist Activity in Conscious Rats (vasopressin vasopressor response); assay type: in vivo, rat; design: Average Change: unit not given here; conditions: for % Inhibition / Average Change: SHR
Summary of the method: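 Conscious rats are restrained supine, and under local 2% procaine a PE 10/20 cannula is passed through the ventral caudal tail artery into the lower abdominal aorta. The caudal vein is cannulated for intravenous dosing. Blood pressure is recorded with a Statham P23Db transducer, and vasopressin injections are repeated after compound dosing. Percent antagonism is calculated against the pre-drug vasopressor response taken as 100%.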

[4] = 10 mg/kg p.o., VAS 0.01 i.u./kg, 30 min
[5] = 10 mg/kg p.o., VAS 0.01 i.u./kg, 60 min
[6] = 10 mg/kg p.o., VAS 0.01 i.u./kg, 90 min
[7] = 10 mg/kg p.o., VAS 0.01 i.u./kg, 120 min
[8] = 10 mg/kg p.o., VAS 0.01 i.u./kg, 180 min
[9] = 10 mg/kg p.o., VAS 0.01 i.u./kg, 240 min
[10] = 10 mg/kg p.o., VAS 0.02 i.u./kg, 30 min
[11] = 10 mg/kg p.o., VAS 0.02 i.u./kg, 60 min
[12] = 10 mg/kg p.o., VAS 0.02 i.u./kg, 90 min
[13] = 10 mg/kg p.o., VAS 0.02 i.u./kg, 120 min
[14] = 10 mg/kg p.o., VAS 0.02 i.u./kg, 180 min
[15] = 10 mg/kg p.o., VAS 0.02 i.u./kg, 240 min
[16] = 10 mg/kg i.v., VAS 0.01 i.u./kg, 30 min
[17] = 10 mg/kg i.v., VAS 0.01 i.u./kg, 60 min
[18] = 10 mg/kg i.v., VAS 0.01 i.u./kg, 90 min
[19] = 10 mg/kg i.v., VAS 0.01 i.u./kg, 120 min
[20] = 10 mg/kg i.v., VAS 0.01 i.u./kg, 180 min
[21] = 10 mg/kg i.v., VAS 0.01 i.u./kg, 240 min
[22] = 10 mg/kg i.v., VAS 0.01 i.u./kg, 300 min
[23] = 10 mg/kg i.v., VAS 0.02 i.u./kg, 30 min
[24] = 10 mg/kg i.v., VAS 0.02 i.u./kg, 60 min
[25] = 10 mg/kg i.v., VAS 0.02 i.u./kg, 90 min
[26] = 10 mg/kg i.v., VAS 0.02 i.u./kg, 120 min
[27] = 10 mg/kg i.v., VAS 0.02 i.u./kg, 180 min
[28] = 10 mg/kg i.v., VAS 0.02 i.u./kg, 240 min
[29] = 10 mg/kg i.v., VAS 0.02 i.u./kg, 300 min

In the case of `Cc1c(F)cccc1C(=O)Nc1ccc(C(=O)N2Cc3ccnn3Cc3ccccc32)cc1` [Example 517, N-[4-(4H-Pyrazolo[5,1-c][1,4]benzodiazepin-5(10H)-ylcarbonyl)phenyl]-3-fluoro-2-methylbenzamide], the Osmolality ([1]; 10 mg/kg orally) is reported as 411 mOsm/kg, the “Urine Volume” value ([1]; 10 mg/kg orally) is reported as 14.7 ml/4 hrs and the IC50 [2] is reported as 15 nM. The “Max. % Inhibition” value ([3]; 10 mg/kg i.v.) was 81% and the “Time (of max. % inhibition)” value ([3]; 10 mg/kg i.v.) was 90 min.
In the case of `O=C(Nc1ccc(C(=O)N2Cc3cccn3Cc3ccccc32)cc1)c1cccc(C(F)(F)F)c1` [Example 474, N-[4-(5H-pyrrolo[2,1-c][1,4]benzodiazepin-10(11H)-ylcarbonyl)phenyl]-3-(trifluoromethyl)benzamide], the Osmolality ([1]; 10 mg/kg orally) is reported as 619 mOsm/kg, the “Urine Volume” value ([1]; 10 mg/kg orally) is reported as 11.5 ml/4 hrs and the IC50 [2] is reported as 38 nM. The “Max. % Inhibition” value ([3]; 30 mg/kg i.v.) was 80% and the “Time (of max. % inhibition)” value ([3]; 30 mg/kg i.v.) was 60 min.
For `O=C(Nc1ccc(C(=O)N2Cc3ccc(C(=O)C(F)(F)F)n3Cc3ccccc32)cc1)c1ccccc1C(F)(F)F` [Example 594], the Osmolality ([1]; 10 mg/kg orally) was 1172 ± 182 mOsm/kg, the “Urine Volume” value ([1]; 10 mg/kg orally) was 4.9 ± 1.2 ml/4 hrs and the inhibition at 10 µM ([2]; 10 μM, rat) was 23%. The “Max. % Inhibition” value ([3]; 30 mg/kg i.v.) was 36% and the “Time (of max. % inhibition)” value ([3]; 30 mg/kg i.v.) was 180 min.
In the case of `O=C(Nc1ccc(C(=O)N2Cc3cccn3Cc3ccccc32)cc1)c1cc(Cl)ccc1Cl` [Example 4, N-[4-(5H-pyrrolo[2,1-c][1,4]benzodiazepin-10(11H)-ylcarbonyl)phenyl]-2,5-dichlorobenzamide], the Osmolality ([1]; 1 mg/kg orally) is reported as 1129 mOsm/kg, the “Urine Volume” value ([1]; 1 mg/kg orally) is reported as 2 ml/4 hrs and the Osmolality ([1]; 3 mg/kg orally) is reported as 646 ± 115 mOsm/kg. The “Urine Volume” value ([1]; 3 mg/kg orally) was 9.5 ± 1.2 ml/4 hrs, the Osmolality ([1]; 10 mg/kg orally) was 571 mOsm/kg and the “Urine Volume” value ([1]; 10 mg/kg orally) was 16.9 ml/4 hrs. The IC50 [2] was 14 nM, the “% Inhibition” value [3, 4] was 6% and the “Average Change” value [3, 4] was 44.5. For the same compound, the “% Inhibition” value [3, 5] was 36%, the “Average Change” value [3, 5] was 30.5 and the “% Inhibition” value [3, 6] was 19%. For the same compound, the “Average Change” value [3, 6] was 38.5, the “% Inhibition” value [3, 7] was 32% and the “Average Change” value [3, 7] was 32.5. The “% Inhibition” value [3, 8] was 25%, the “Average Change” value [3, 8] was 35.5 and the “% Inhibition” value [3, 9] was 39%. The “Average Change” value [3, 9] was 29, the “% Inhibition” value [3, 10] was 27% and the “Average Change” value [3, 10] was 36. For the same compound, the “% Inhibition” value [3, 11] was 10%, the “Average Change” value [3, 11] was 44.5 and the “% Inhibition” value [3, 12] was -5%. For the same compound, the “Average Change” value [3, 12] was 52, the “% Inhibition” value [3, 13] was -2% and the “Average Change” value [3, 13] was 50.5. For the same compound, the “% Inhibition” value [3, 14] was 11%, the “Average Change” value [3, 14] was 44 and the “% Inhibition” value [3, 15] was 47%. For the same compound, the “Average Change” value [3, 15] was 26.
With `O=C(Nc1ccc(C(=O)N2Cc3cccn3Cc3ccccc32)cc1)c1c(Cl)cccc1Cl` [Example 469, N-[4-(5H-pyrrolo[2,1-c][1,4]benzodiazepin-10(11H)-ylcarbonyl)phenyl]-2,6-dichlorobenzamide] the Osmolality ([1]; 10 mg/kg orally) was 548 mOsm/kg, the “Urine Volume” value ([1]; 10 mg/kg orally) was 11.3 ml/4 hrs and the IC50 [2] was 15 nM. For the same compound, the “Max. % Inhibition” value ([3]; 10 mg/kg i.v.) was 69% and the “Time (of max. % inhibition)” value ([3]; 10 mg/kg i.v.) was 30 min.
In the case of `O=C(Nc1ccc(C(=O)N2Cc3ccc(CO)n3Cc3ccccc32)cc1)c1ccc(Cl)cc1Cl` [Example 581, 2,4-Dichloro-N-[4-[[3-(hydroxymethyl)-5H-pyrrolo[2,1-c][1,4]benzodiazepin-10(11H)-yl]carbonyl]phenyl]benzamide], the Osmolality ([1]; 10 mg/kg orally) is reported as 941 ± 219 mOsm/kg, the “Urine Volume” value ([1]; 10 mg/kg orally) is reported as 4 ± 1.2 ml/4 hrs and the IC50 [2] is reported as 5.3 nM. The “Max. % Inhibition” value ([3]; 10 mg/kg i.v.) was 94%, the “Time (of max. % inhibition)” value ([3]; 10 mg/kg i.v.) was 30 min and the “Max. % Inhibition” value ([3]; 30 mg/kg p.o.) was 79%. For the same compound, the “Time (of max. % inhibition)” value ([3]; 30 mg/kg p.o.) was 30 min.
For `O=C(Nc1ccc(C(=O)N2Cc3cccn3Cc3ccccc32)cc1)c1ccccc1Cl` [Example 7], the Osmolality ([1]; 10 mg/kg orally) was 780 mOsm/kg, the “Urine Volume” value ([1]; 10 mg/kg orally) was 9 ml/4 hrs and the Osmolality ([1]; 30 mg/kg orally) was 815 mOsm/kg. The “Urine Volume” value ([1]; 30 mg/kg orally) was 12.4 ml/4 hrs, the IC50 [2] was 5 nM and the “% Inhibition” value [3, 16] was 87%. The “Average Change” value [3, 16] was 6, the “% Inhibition” value [3, 17] was 87% and the “Average Change” value [3, 17] was 6. For the same compound, the “% Inhibition” value [3, 18] was 82%, the “Average Change” value [3, 18] was 8.5 and the “% Inhibition” value [3, 19] was 80%. The “Average Change” value [3, 19] was 9.5, the “% Inhibition” value [3, 20] was 63% and the “Average Change” value [3, 20] was 17.5. The “% Inhibition” value [3, 21] was 56%, the “Average Change” value [3, 21] was 20.5 and the “% Inhibition” value [3, 22] was 57%. For the same compound, the “Average Change” value [3, 22] was 20, the “% Inhibition” value [3, 23] was 87% and the “Average Change” value [3, 23] was 7.5. The “% Inhibition” value [3, 24] was 86%, the “Average Change” value [3, 24] was 8 and the “% Inhibition” value [3, 25] was 78%. For the same compound, the “Average Change” value [3, 25] was 12.5, the “% Inhibition” value [3, 26] was 77% and the “Average Change” value [3, 26] was 13. For the same compound, the “% Inhibition” value [3, 27] was 59%, the “Average Change” value [3, 27] was 23 and the “% Inhibition” value [3, 28] was 46%. For the same compound, the “Average Change” value [3, 28] was 30.5, the “% Inhibition” value [3, 29] was 59% and the “Average Change” value [3, 29] was 23.
`COc1cc(C(=O)N2Cc3cccn3Cc3ccccc32)ccc1NC(=O)c1cccc(F)c1C` [Example 479, N-[4-(5H-pyrrolo[2,1-c][1,4]benzodiazepin-10(11H)-ylcarbonyl)-2-methoxy-phenyl]-3-fluoro-2-methylbenzamide] was tested, and the Osmolality ([1]; 10 mg/kg orally) was 1042 mOsm/kg, the “Urine Volume” value ([1]; 10 mg/kg orally) was 6 ml/4 hrs and the IC50 [2] was 8 nM. The “Max. % Inhibition” value ([3]; 10 mg/kg i.v.) was 83%, the “Time (of max. % inhibition)” value ([3]; 10 mg/kg i.v.) was 60 min and the “Max. % Inhibition” value ([3]; 30 mg/kg p.o.) was 69%. For the same compound, the “Time (of max. % inhibition)” value ([3]; 30 mg/kg p.o.) was 90 min.
In the case of `O=C(Nc1ccc(C(=O)N2Cc3cccn3Cc3ccccc32)cc1)c1cc(Cl)cc(Cl)c1Cl` [Example 599, N-[4-(5H-Pyrrolo[2,1-c][1,4]benzodiazepin-10(11H)-ylcarbonyl)phenyl]-2,3,5-trichlorobenzamide], the Osmolality ([1]; 10 mg/kg orally) is reported as 407 mOsm/kg, the “Urine Volume” value ([1]; 10 mg/kg orally) is reported as 18 ml/4 hrs and the IC50 [2] is reported as 14 nM. The “Max. % Inhibition” value ([3]; 30 mg/kg i.v.) was 86% and the “Time (of max. % inhibition)” value ([3]; 30 mg/kg i.v.) was 90 min.
In the case of `Cc1ccccc1C(=O)Nc1ccc(C(=O)N2Cc3cccn3Cc3ccccc32)cc1Cl` [Example 530, N-[4-(5H-Pyrrolo[2,1-c][1,4]benzodiazepin-10(11H)-ylcarbonyl)-2-chlorophenyl]-2-methylbenzamide], the Osmolality ([1]; 10 mg/kg orally) is reported as 914 mOsm/kg, the “Urine Volume” value ([1]; 10 mg/kg orally) is reported as 6 ml/4 hrs and the IC50 [2] is reported as 3.7 nM. The “Max. % Inhibition” value ([3]; 30 mg/kg i.v.) was 89% and the “Time (of max. % inhibition)” value ([3]; 30 mg/kg i.v.) was 120 min.
With `Cc1cccc(NC(=O)c2ccc(C(=O)N3Cc4cccn4Cc4ccccc43)cc2)c1C` [Example 485, N-(2,3-Dimethylphenyl)-4-(5H-pyrrolo[2,1-c][1,4]benzodiazepin-10(11H)-ylcarbonyl)benzamide] the Osmolality ([1]; 10 mg/kg orally) was 961 mOsm/kg, the “Urine Volume” value ([1]; 10 mg/kg orally) was 4 ml/4 hrs and the IC50 [2] was 13 nM. For the same compound, the “Max. % Inhibition” value ([3]; 30 mg/kg i.v.) was 64% and the “Time (of max. % inhibition)” value ([3]; 30 mg/kg i.v.) was 60 min.
